Assay results taken from ChEMBL document CHEMBL5236629, “Antioxidant and Neuroprotective Effects of the First Tryptophyllin Found in Snake Venom (Bothrops moojeni)” (J Nat Prod, 2022).
The source made the active and inactive calls. The rule behind the calls is not given here. Where a SMILES comes first, the peptide text is derived from it.

Tests used:
SK-N-BE(2) [1] = assay: Antioxidant acitivity against PMA-stimulated human SK-N-BE(2) cells assessed as reduction in PMA-stimulated RNS level at 50 uM incubated for 60 mins by DCFH-DA staining based flow cytometric analysis; assay type: functional, cell-based
[2] = Protection against AAPH-induced hemolysis in human RBC at 50 to 100 ug/ml preincubated with compound for 20 mins followed bu AAPH addition and measured after 3 hrs by spectrophotometric analysis relative to control; assay type: functional, Erythrocyte; conditions: dose 50-100 µg/ml; time 200 min; 3.333 h; at 50 to 100 µg/mL
N2a [3] = assay: Antioxidant activity in arsenite-induced mouse Neuro2a cells assessed as reduction in Nrf2 protein level at 100 uM incubated for 3 hrs by Western blot analysis; assay type: functional, cell-based
[4] = Antioxidant activity assessed as trolox equivalent of ABTS radical scavenging activity measured for 6 mins; assay type: functional
[5] = Hemolytic activity in human red blood cell assessed as cell membrane disruption at 12.5 to 400 ug/ml incubated for 1 hrs by microplate reader analysis; assay type: toxicity, cell-based; conditions: erythrocyte, dose 12.5-400 µg/ml
[6] = Antioxidant activity assessed as protection against AAPH-induced DNA degradation in to linear form incubated for 1 hrs by SYBR dye based electrophoresis; assay type: functional
[7] = Antioxidant activity assessed as trolox equivalent of AAPH radical scavenging activity preincubated for 15 mins followed by 10 sec incubation under shaking condition and measured every minute for 2 hrs by ORAC fluorescence based microplate reader analysis; assay type: functional; conditions: time 8110.0 sec
[8] = Cytotoxicity against human SK-N-BE(2) cells assessed as reduction in cell viability incubated for 24 hrs by MTT assay; assay type: toxicity, cell-based
SK-N-BE(2) [9] = assay: Antioxidant acitivity against PMA-stimulated human SK-N-BE(2) cells assessed as reduction in PMA-stimulated ROS level at 50 to 100 uM incubated for 60 mins by DCFH-DA staining based flow cytometric analysis; assay type: functional, cell-based; conditions: dose 50-100 µM
N2a [10] = assay: Antioxidant activity in arsenite-induced mouse Neuro2a cells assessed as increase in SOD level at 100 uM incubated for 3 hrs by Western blot analysis; assay type: functional, cell-based
Erythrocyte = assay: Protection against AAPH-induced hemolysis in human RBC at 25 to 400 ug/ml preincubated with compound for 20 mins followed bu AAPH addition and measured after 3 hrs by spectrophotometric analysis; assay type: functional, cell-based; conditions: dose 25-400 µg/ml, time 200.0 min

For `CC[C@H](C)[C@H](NC(=O)[C@H](Cc1c[nH]c2ccccc12)NC(=O)[C@@H]1CCCN1C(=O)[C@@H](N)Cc1ccccc1)C(=O)N[C@H](C(=O)N[C@@H](CO)C(N)=O)[C@@H](C)CC` (H-FPWIIS-NH2), which Activity (SK-N-BE(2) [1]) is on record?
The Activity was “Active”.

What about the Activity [2] of the same compound?
The Activity was >75%.

What about the Activity (N2a [3]) of the same compound?
The Activity was “Active”.

And the Activity [4]?
The Activity was 796 µM/g.

What about the Activity [5] of the same compound?
Its Activity is “Non-Toxic”.

And the Activity [6]?
Its Activity is “Active”.

And the Activity [7]?
The Activity was 674 µM/g.

And the CC50 at 24 h [8]?
The CC50 at 24 h was 1730 µM.

What about the Activity (SK-N-BE(2) [9]) of the same compound?
Its Activity is “Active”.

And the Activity (N2a [10])?
The Activity was “inactive”.

What about the Activity (Erythrocyte) of the same compound?
The Activity was “Active”.
